Assay results: patent publication US8497279B2, “Treatment for discoid lupus” (Rigel Pharmaceuticals, Inc., priority 2011, dated 2013)
Where a name gives a salt, the structure may show the parent alone.

What was measured:
[1] = test system: JAK1 and JAK3 kinases; assay: Ramos B-cell line stimulated with IL-4, CD23 upregulation (FACS); assay type: cell-based, human; details: Ramos B cells, IL-4 50 units/mL, 20-24 hours, CD23 staining; read-out: Example 3 IC50
Experimental: One means of assaying for JAK inhibition is detection of the effect of compounds I and II on the upregulation of downstream gene products. In the Ramos/IL4 assay, B-cells are stimulated with the cytokine Interleukin-4 (IL-4) leading to the activation of the JAK/Stat pathway through phosphorylation of the JAK family kinases, JAK1 and JAK3, which in turn phosphorylate and activate the transcription factor Stat-6. […] Twenty to 24 hours post stimulation, cells are stained for upregulation of CD23 and analyzed using flow cytometry (FACS). […] An exemplary assay of this type is described in greater detail below. B-cells stimulated with cytokine Interleukin-4 (IL-4) activate the JAK/Stat pathway through phosphorylation of the JAK family kinases, JAK-1 and JAK-3, which in turn phosphorylate and activate the transcription factor Stat-6. […] To study the effect of inhibitors on the JAK family kinases, human Ramos B cells are stimulated with human IL-4. The Ramos B-cell line was acquired from [NT] No. CRL-1596). The cells were cultured in RPMI 1640 (Cellgro, MediaTech, Inc., Herndon, Va., Cat No. 10-040-CM) with 10% fetal bovine serum (FBS), heat inactivated (JRH Biosciences, Inc, Lenexa, Kans., Cat No. 12106-500M) according to ATCC propagation protocol. Cells were maintained at a density of 3.5×10^5. The day before the experiment, Ramos B-cells were diluted to 3.5×10^5 cells/mL to ensure that they were in a logarithmic growth phase. Cells were spun down and suspended in RPMI with 5% serum. 5×10^4 cells were used per point in a 96-well tissue culture plate. Cells were pre-incubated with compound or DMSO (Sigma-Aldrich, St. Louis, Mo., Cat No. D2650) vehicle control for 1 hour in a 37° C. incubator. Cells were then stimulated with IL-4 (Peprotech Inc., Rocky Hill, N.J., Cat No. 200-04) for a final concentration of 50 units/mL for 20-24 hours. Cells were then spun down and stained with anti-CD23-PE(BD Pharmingen, San Diego, Calif., Cat No. 555711) and analyzed by FACS. Detection was performed using a BD LSR I System Flow Cytometer, purchased from Becton Dickinson Biosciences of San Jose, Calif.

[2] = test system: primary human T-cells; assay: Primary human T-cell proliferation assay stimulated with IL-2 (CellTiter-Glo); assay type: cell-based; details: primary human T-cells, IL-2, 72 hours, ATP readout; read-out: Example 4 IC50
Source text: In this assay, primary human T-cells derived from peripheral blood and pre-activated through stimulation of the T-cell receptor and CD28, proliferate in culture in response to the cytokine Interleukin-2 (IL-2). This proliferative response is dependent on the activation of JAK1 and JAK3 tyrosine kinases, which phosphorylate and activate the transcription factor Stat-5. […] A reduction in cell proliferation compared to control conditions is indicative of inhibition of the JAK kinase pathway. An exemplary assay of this type is described in greater detail below.
Primary human T-cells derived from peripheral blood and pre-activated through stimulation of the T-cell receptor and CD28, proliferate in vitro in response to the cytokine Interleukin-2 (IL-2). This proliferative response is dependent on the activation of JAK-1 and JAK-3 tyrosine kinases, which phosphorylate and activate the transcription factor Stat-5.
Human primary T cells were prepared as follows. […] The lymphocytes at the serum: ficoll interface were recovered and washed twice with 5 volumes of PBS. […] The primary T-cells were stimulated for 3-4 days, then transferred to a fresh flask and maintained in RPMI with 10% FBS and 40 U/mL IL-2.
Primary T-cells were washed twice with PBS to remove the IL-2 and resuspended in Yssel's medium at 2×10^6 cells/mL. 50 μL of cell suspension containing 80 U/mL IL-2 was added to each well of a flat bottom 96 well black plate. For the unstimulated control, IL-2 was omitted from the last column on the plate. […] 50 μL of 2× compound was added per well in duplicate and the cells were allowed to proliferate for 72 hours at 37° C.
Proliferation was measured using CellTiter-Glo® Luminescent Cell Viability Assay (Promega), which determines the number of viable cells in culture based on quantitation of the ATP present, as an indicator of metabolically active cells. The substrate was thawed and allowed to come to room temperature. After mixing the Cell Titer-Glo reagent and diluent together, 100 μL was added to each well. […]

[3] = test system: JAK/Stat pathway; assay: U937 IFNγ ICAM1 FACS assay; assay type: cell-based, human; details: U937 cells, IFNγ 10 ng/mL, 18-24 hours, ICAM-1 expression; read-out: Example 6 IC50
Experimental: U937 human monocytic cells up-regulate ICAM-1 (CD54) surface expression in response to a variety of different stimuli. Therefore, using ICAM-1 expression as readout, compound effects on different signaling pathways can be assessed in the same cell type. IFNγ up-regulates ICAM-1 through activation of the JAK/Stat pathway. In this example, the up-regulation of ICAM-1 by IFNγ was assessed.
U937 cells were grown in 10% RPMI. The cells were then plated at a concentration of 100,000 cells per 160 μL in 96 well flat bottom plates. […] Then 4 μL of test compound was transferred to 76 μL of 10% RPMI resulting in a 10× solution (100 μM test compound, 5% DMSO). For control wells, 4 μL of DMSO was diluted into 76 μL 10% RPMI.
The assay was performed in duplicate with 8 points (8 3-fold dilution concentrations from […]) and with 4 wells of DMSO only (control wells) under stimulated conditions and 4 wells of DMSO only under unstimulated conditions.
The diluted compound plate was mixed 2× using a multimek (Beckman Coulter of Brea, Calif.) and then 20 μL of the diluted compounds was transferred to the 96 well plate containing 160 μL of cells, which were then mixed again twice at low speeds. The cells and compounds were then pre-incubated for 30 minutes at 37° C. with 5% CO2.
The 10× stimulation mix was made by preparing a 100 ng/mL solution of human IFNγ in 10% RPMI. […] The cells were kept under conditions for stimulation for 18-24 hours at 37° C. with 5% CO2.
The cells were transferred to a 96 well round bottom plate for staining and then kept on ice for the duration of the staining procedure. Cells were spun down at 1000 rpm for 5 minutes at 4° C., following which the supernatant was removed. Following removal of the supernatant, 1 μL APC conjugated mouse anti-human ICAM-1 antibody was added per 100 μL FACS buffer. The cells were then incubated on ice in the dark for 30 minutes. Following incubation, 150 μL of FACS buffer was added and the cells were centrifuged at 1000 rpm for 5 minutes at 4° C., following which the supernatant was removed. […]
Both % live cells and ICAM-1 expression was analyzed. […]

C#CCOc1ccc(Nc2nc(Nc3ccc(C)c(S(=O)(=O)NC(=O)CC)c3)ncc2F)cc1 [VI, 5-Fluoro-N2-[4-methyl-3-(N-propionylaminosulfonyl)phenyl]-N4-[4-(2-propynyloxy)phenyl]-2,4-pyrimidinediamine Arginine Salt]
IC50 [1]: 104 nM
IC50 [2]: 262 nM
IC50 [3]: 424 nM
